Patent US8329413B2, “Glycoproteomic probes for fluorescent imaging of fucosylated glycans in vivo” (Academia Sinica, priority 2007, dated 2012)
Structures can show the parent of a compound that is named as a salt.

Tests used:
[1] = cited from earlier work
[2] = system: human alpha1-acid glycoprotein (AGP); assay: Fluorescent labeling of AGP fucosylated by FucT V, SDS/PAGE visualized by UV light; format: biochemical; settings: AGP fucosylated with FucT V and GDP-fucose analog 8, 9 or 10, then labeled with 1a or 1b
From the text: Briefly, fucose analogs 4 and 5 are converted to the corresponding 1-bromides, which then are substituted directly by a phosphate group. […] Therefore, TiBr4 is used instead, as described by Srivastava. The fucose-1-phosphates are converted to the corresponding GDP-fucose analogs by using 1H-tetrazole as a catalyst. The tolerability of GDP-fucose analogs 8 and 9 for human alpha-1,3-fucosyltranseferases (FucTs) II-VII is confirmed by using a standard microtiter plate assay. They are then used to elaborate the glycoconjugate substrate, human alpha1-acid glycoprotein (AGP), an acute-phase protein. As fucosylation of AGP is associated with inflammatory diseases, the degree of fucosylation of AGP could be a potential diagnostic or prognostic marker. AGP was fucosylated by using FucT V in the presence of GDP-fucose analogs 8 or 9. After gel filtration, the fucosylated AGP is labeled by using the corresponding naphthalimide 1a or 1b for 4 h at room temperature. Labeled protein is analyzed by SDS/PAGE and visualized by UV light (365 nm). […] Treated protein was separated by SDS/PAGE and visualized by UV light (Top) and Coomassie blue staining (CBB) (Middle). (Bottom) Modified GDP-fucose.
Human alpha1-acid glycoprotein (0.33 mg/mL), pretreated with alpha-fucosidase, was incubated with human alpha-1,3-fucosyltransferase V (100 mU/mL) in MOPS buffer (50 mM, pH 7.2) containing 150 mM NaCl, 10 mM MnCl2, 4 mM ATP, 0.2 mM GDP-fucose analog (8-10). After incubation at 37° C. for 8 h, additional GDP-fucose derivative (final 0.4 mM) was added and the reaction mixture was incubated at 37° C. for 12 h. […]
The fucosylated glycoconjugate was dissolved in HEPES buffer (50 mM, pH 7.6), and added to a solution containing CuSO4 (0.2 mM), 1.0 mM sodium ascorbate, the tris(triazolyl)amine ligand (20) (0.2 mM, stock in DMSO), and the appropriate naphthalimide ligation probe 1a or 1b (0.1 mM, stock in DMSO, final concentration of DMSO; 10%)). After 1 h at room temperature, the mixture was passed through NAP-5 column in water and lyophilized, and analyzed by SDS-PAGE.

Hep 3B = assay: Fluorescence microscopy imaging of intracellular fucosylated glycoconjugates; format: cell-based, human
Procedure: The human hepatoma cell line, Hep 3B, was incubated with acetylated azidofucose 12. After 3 days, the cells were fixed, washed with PBS, and then stained with 1a for visualization. […] The labeling reaction was performed in the presence of Cu(I) after the treatment with control fucose (A) or azidofucose 12 (B), or in the absence of Cu(I) after the treatment with control fucose (C) or azidofucose 12 (D). (Scale bar: 20 μm.)
In another aspect of the disclosure, double-staining experiments were performed to find out whether the punctate pattern observed from azidofucose marks specific cellular compartments. […] Azidofucose treated cells were fixed and labeled with probe 1a and then further treated with WGA lectin conjugated with Alexa Fluor 594, and the cells were imaged with confocal fluorescence microscope, using the appropriate filter sets. […] (Scale bar: 20 μm.)
The human hepatocellular carcinoma cell line, Hep3B (American Type Culture Collection, Manassas, Va.), was cultured in Opti-MEM (Invitrogen) supplemented with 0.1% FCS and treated with natural fucose or peracetylated azidofucose 12 (200 μM) for 3 days. The cells then were transferred to a coverslip glass slide and cultured overnight in the same medium. […] After labeling, cells were washed with PBS, and fluorescence images were obtained by using Axiovert 200M (Carl Zeiss, Inc., Thornwood, N.Y.). […]

Jurkat cells = assay: Fluorescent labeling at the cell surface by flow cytometry; format: cell-based
From the text: In another aspect, the disclosure provides a method of labeling of azide-tagged glycoconjugates expressed on the cell surface by using the alkyne click-activated fluorogenic probe 1a. First, the effect of various Cu(I) sources on the copper-catalyzed cell-surface labeling reaction was investigated. Cu(I) is typically generated including in situ by the reduction of Cu(II) by conventional reducing agents or the direct addition of Cu(I) as a salt. To label azido tagged glycoconjugates (in this case, cellular glycans that had incorporated azidofucose), we investigated both methods by using in situ Cu(II) reduction with ascorbic acid and Tris(carboxyethyl)phosphine (TCEP) and direct addition of Cu(I), via CuBr, in CuAAC reactions. Jurkat cells were cultured in the presence of globally acetylated 6-azido-L-fucose 12 (acetylation increases cellular uptake of the sugar) so that they will incorporate the analog via the salvage pathway. After incubating for 3 days, the cells were labeled with 1a in the presence of the above listed Cu(I) sources, and the fluorescent intensities were measured by flow cytometry. […]
Jurkat cells were cultured in RPMI medium 1640 (Invitrogen, Carlsbad, Calif.), supplemented with 10% FCS and peracetylated fucose 11 or azidofucose 12 (200 μM) at a density of 2×10^5 cells per ml for 3 days, in the presence or absence of tunicamycin (5 μg/ml). […] The fluorescence intensity was detected and acquired by BD LSR II (BD Biosciences, San Jose, Calif.) and FACSDiva software (BD Biosciences). […] For detection of the fluorescent adduct with probe 1a, a 351-nm UV laser was used for excitation, and emission was detected by a 440/40 band-pass filter.
Jurkat cells were cultured in RPMI 1640 (Invitrogen, Carlsbad, Calif.) supplemented with 10% FCS and peracetylated fucose 11 or azidofucose 12 ([…]) at the density of 2×10^5 cells/mL for 3 days, in the presence or absence of tunicamycin ([…]). […] The fluorescence intensity was detected and acquired by BD LSR II (BD Biosciences, San Jose, Calif.) and FACSDiva software (BD Biosciences). […]

[3] = Stoichiometric study of L-histidine in the cycloaddition of 1a and 2a; settings: relative to copper ion; L-histidine 0-3.0 mM, CuSO4 1.0 mM
Procedure: The overall volume in each vial was 250 microliters containing a solution of 1,8-naphthalimide 1a (0.5 mM), azidofucose 2a (1.0 mM), CUSO4 (1.0 mM), L-histidine (0-3.0 mM) and sodium ascorbate (5.0 mM) in DMSO/water (56% DMSO). The reactions were allowed to stand at room temperature for 24 hours. The catalytic activity was determined by the same method described above (FIG. 10).
In this condition, 60% of 1a was converted to the product 10 after 1 h at room temperature and the reaction was completed in less than 6 h. To confirm the effects of L-His on the reaction, we measured the time-course of the reaction by fluorescence spectrometer. Conditions: 1,8-naphthalimide 1a (0.1 mM), azidofucose 2a (1.0 mM), CuSO4 (2.0 mM), L-histidine (0 or 4.0 mM) and sodium ascorbate (100 mM) in 50 mM HEPES buffer (containing 6% DMSO). After mixing all reagents, the fluorescence intensity was measured in 5 min intervals at 37° C. by a fluorescence spectrophotometer (FIG. 11). […] Fluorescence intensities were monitored at λ ex 357 nm and λem 462 nm.

[4] = Rapid screening of L-amino acids as cycloaddition ligand catalysts using fluorogenic probe 1a; settings: L-amino acid 1.0 mM, CuSO4 1.0 mM, 1a + 2a
Procedure: A fluorescence quenching technique was used to identify catalysts for the copper-catalyzed cycloaddition. […] In such a screen, the reaction between 1a and 2a is performed in microtiter plates in the presence of individual amino acids. […] (Upper) The microtiter plate was visualized under long wavelength UV lamp (365 nm). (Lower) The fluorescent intensities of each well are measured by a fluorescence plate reader.
The effect of the ligand effect on the reaction rate was visualized by holding the 96-well microtiter plate under a long wavelength UV lamp (365 nm) and analyzed with a standard fluorescence multiplate reader.
The overall volume in each vial was 250 microliters containing a solution of 1,8-naphthalimide 1a (0.5 mM), azidofucose 2a (1.0 mM), CuSO4 (1.0 mM), L-amino acid (1.0 mM) and sodium ascorbate (5.0 mM) in DMSO/water (56% DMSO). The reactions were allowed to stand at room temperature for 24 hours. The reaction mixture was diluted 60 times with 50 mM HEPES buffer (pH 7.2) and then transferred to 96-well microtiter plate, and fluorescence intensity (excitation, 365 nm; emission, […]) was determined with a Fusion plate reader (Perkin Elmer/Packard).

Molecule: Nc1ccc2c3c(cccc13)C(=O)NC2=O [4-amino-1,8-naphthalimide]
- emission λmax ([1]; long wavelength emission, basis of probe design): 540-550 nm

Molecule: C#Cc1ccc2c3c(cccc13)C(=O)N(CC)C2=O [Compound 1a, 4-Ethynyl-N-ethyl-1,8-naphthalimide]
- fluorescent band of labeled AGP on SDS/PAGE under UV light (365 nm) [2]: clear fluorescent bands

Molecule: C[C@@H]1O[C@H](OP(=O)(O)OP(=O)(O)OC[C@H]2O[C@@H](n3cnc4c(=O)[nH]c(N)nc43)[C@H](O)[C@@H]2O)[C@@H](O)[C@H](O)[C@@H]1O [Compound 10, GDP-fucose]
- fluorescent band of labeled AGP on SDS/PAGE under UV light (365 nm) [2]: No band was present

Molecule: CC(=O)OC1O[C@@H](CN=[N+]=[N-])[C@@H](OC(C)=O)[C@@H](OC(C)=O)[C@@H]1OC(C)=O (stereo partly shown) [Compound 12]
- labeling pattern after staining with 1a vs control fucose (Hep 3B; Hep 3B, 3 days, fixed cells, Cu(I)): distinct punctate-labeling pattern
- co-localization with Alexa Fluor 594-conjugated WGA lectin (Golgi marker) (Hep 3B; fixed cells labeled with probe 1a, confocal microscopy): overlapped perfectly
- cell fluorescence after CuAAC labeling with 1a vs natural fucose (Jurkat cells; Jurkat cells, 3 days, all three copper sources, flow cytometry): distinct increase in fluorescence
- fluorescent signal after labeling with biotinylated alkyne 13 and avidin-fluorescein vs fucose (Jurkat cells; Jurkat cells, flow cytometry): distinct increase in fluorescent signal

Molecule: N[C@@H](Cc1c[nH]cn1)C(=O)O [Histidine, histidine]
- amount of ligand giving maximum effect on the catalysis [3]: 2.0 mol equivalent
- enhancement of reaction rate compared to ligand-free conditions ([4]; 24 h room temperature): about 6 times

Molecule: C=C[C@H]1C[N@@]2CC[C@H]1C[C@H]2[C@H](O)c1ccnc2ccc(OC)cc12 [Quinine sulfate]
- quantum yield of fluorescent standard ([1]; standard value): 0.54

Molecule: N[C@@H](CS)C(=O)O [cysteine]
- effect on cycloaddition reaction [4]: obstructive to the reaction

Molecule: N[C@@H](CCC(=O)O)C(=O)O [glutamic acid]
- effect on cycloaddition reaction [4]: obstructive to the reaction

Molecule: NCCCC[C@H](N)C(=O)O [lysine]
- effect on cycloaddition reaction [4]: obstructive to the reaction

Molecule: N[C@@H](Cc1c[nH]c2ccccc12)C(=O)O [tryptophan]
- enhancement of cycloaddition rates ([4]; 24 h room temperature): approximately 2 fold

Molecule: N[C@@H](Cc1ccc(O)cc1)C(=O)O [tyrosine]
- enhancement of cycloaddition rates ([4]; 24 h room temperature): approximately 2 fold

Molecule: tunicamycin
- effect on cell surface fluorescence (Jurkat cells; Jurkat cells co-treated with azidofucose, labeled with 1a): suppressed cell surface fluorescence
